Assay results from patent publication US9718771B2, “Aniline derivative, pharmaceutical composition containing same, and use thereof” (Kissei Pharmaceutical Co., Ltd., priority 2014, dated 2017).

Legend:
blood lymphocytes = assay: Confirmation test for reduction effects on the number of lymphocytes; type: in vivo, Male Sprague-Dawley rats; conditions: rat, oral; for Number of lymphocytes (% of Vehicle) After 6 hours: 6 hours after administration; for Number of lymphocytes (% of Vehicle) After 24 hours: 24 hours after administration; for Number of lymphocytes (% of Vehicle) After 48 hours: 48 hours after administration
Procedure: Confirmation Test for Reduction Effects on the Number of Lymphocytes
Reduction effects on the number of blood lymphocytes by test compounds were confirmed using Male Sprague-Dawley rats (Japan SLC, 7-weeks-old in use). Administration solutions for test compounds were prepared on hot-plate at 50° C. After test compounds were dissolved by DMSO (dimethyl sulfoxide, Wako Pure Chemicals) of 1/10 volume of the total volume, WellSolve (Celeste) of 1/10 volume of the total volume was added to this solution. Further, distilled water (Otsuka Pharmaceutical Factory) of 8/10 volume of the total volume was added to this solution, and the administration solutions for test compounds were prepared. A solution, prepared in the same volume ratios of DMSO. WellSolve and distilled water as the administration solution for test compounds, was used as a solvent (Vehicle). Vehicle or test compound was administered orally to rats at 1 mL/body. After 6, 24 and 48 hours from administration of vehicle or test compounds, rats were held on the board at supine position under inhalation anesthesia with isoflurane (Abbott Japan). Blood samples (200 to 250 μL) were collected from the cervical vein of this rat using 1 mL syringes with needles of 25G. The collected blood samples were transferred to a microtube treated with EDTA-2K (Japan Becton Dickinson), and stored at room temperature after gently mixing with inversion. The number of lymphocytes was measured by ADVIA (registered mark) (Bayer), which is a multi-parameter automated blood cell counter using this blood samples. The average number of lymphocytes in vehicle-treated group (vehicle group) was defined as 100%, and the average number of lymphocytes in each test compound-treated group was calculated as % of vehicle. As Comparative Example 2, 1-{5-[1-(4-chloro-3-methyl-phenyl)-propylamino]-2-methyl-benzyl}-azetidine-3-carboxylic acid (patent literature 1, Example 4) was evaluated as well.

[1] = system: Naïve T cells-transferred colitis model; assay: Drug efficiency evaluation in naïve T cells-transferred colitis model; type: in vivo; conditions: SCID mice, mean ± standard error; for Body weight change ratio (%): oral twice a day from day 15, 15 mg/kg, day 30; for Colon weight (%) / DAI score (%): oral twice a day, 15 mg/kg, vehicle group = 100%
Procedure: The Drug Efficiency Evaluation in Naïve T Cells—Transferred Colitis Model
(1) Purification of CD45RB Positive Naïve T Cells and Transfer the Cells into SCID Mice
After female BALB/c mice (Charles River Japan, 8-weeks-old in use) were sacrificed by blood removal from cervical vein under inhalation anesthesia with isoflurane spleens were harvested from these mice. Spleens were washed with ice-cold PBS (phosphate buffered saline, Invitrogen) and stored in 50 mL tube containing PBS on ice. Spleens stored on ice were mashed with the upper portion of slide glasses inside a biological safety cabinet, and filtered through a cell filter (pore size 70 μm), and the filtrate was centrifuged at 500×g, room temperature for 5 minutes. After the supernatant was removed, 12 mL of RBC lysis buffer (Biolegend) was added to a cell pellet and it was resuspended and left for about 3 minutes. The supernatant was removed after centrifugation and the hemolytic process was performed by repeating same procedure once again.
The cells were purified with Mouse Naive T cell CD4^+/CD62L^+/CD44^low Colum Kit (R&D systems). The cells performed with the hemolytic process, were suspended by column buffer attached to the above Column Kit, and purified through a cell filter (pore size 70 μm) after centrifugation at 500×g, room temperature for 5 minutes. The cells were resuspended with column buffer, and antibody cocktails attached to the above Column Kit were added to this and mixed. After that, the cells were purified according to the protocol of the Column Kit.
Next, purification of CD45RB positive cells was performed by MACS (registered mark) separator (Miltenyi Biotec). The purified cells were suspended with 2 mL of PBS containing 0.5% BSA, and reacted at room temperature for 15 minutes after adding FITC (fluorescein isothiocyanate)-labeled anti-CD45RB antibody (Biolegend). After washing two times with PBS containing 0.5% BSA by centrifugation, the cells were resuspended with 2 mL of PBS containing 0.5% BSA and reacted at room temperature for 10 minutes after adding anti-FITC microbeads (Miltenyi Biotec). After washing one time with PBS containing 0.5% BSA by centrifugation, the cells were resuspended with 3 mL of PBS containing 0.5% BSA, and a fraction of CD45RB positive cells was purified according to the protocol of MACS (registered trademark) separator. In the process of elution after detached from MACS (registered trademark) separator, the cells were separated with 5 mL of PBS. The cell suspension was washed one time by centrifugation with PBS, resuspended by appropriate PBS and measured the cell number as naïve T cells suspension for transfer. Female CB17/Icr-scid/scid Jcl (SCID mice) (Charles River Japan, 8-weeks-old in use) were induced colitis by intraperitoneal administration of 500 μL (divided into 250 μL two times) of naïve T cells suspension prepared at 6×10^5 cells/mL by PBS.
(2) Measurement of Body Weight and Procedure for Administration of Drugs
Body weights were measured at day 1, 8 and 15 as day 0 when naïve T cells were transferred to mice. Mice were grouped evenly, based on body weight change at day 15. The measurement of body weight was performed two times a week after day 15. A solvent (Vehicle) and test compounds were administered twice a day from the evening of day 15. The administration solution was prepared as indicated below. Firstly, 0.5% methyl cellulose (Wako pure chemicals) of 1/10 volume of total volume was added to test compound, and a suspension was prepared by sonication. […] After that, administration solutions for test compounds were prepared by sonication while adding distilled water of 9/10 volume of total volume to these suspensions in several batches. A solution prepared in the same volume ratios of 0.5% methyl cellulose and distilled water as administration solutions for test compounds was used as vehicle. Administration solutions for vehicle or test compounds were orally administered to mice at 5 mL/kg.

SMILES	Number of lymphocytes (% of Vehicle) After 6 hours (blood lymphocytes; 10 mg/kg)	Number of lymphocytes (% of Vehicle) After 24 hours (blood lymphocytes; 10 mg/kg)	Number of lymphocytes (% of Vehicle) After 48 hours (blood lymphocytes; 10 mg/kg)	Body weight change ratio (%) [1] [%]	Colon weight (%) [1] [%]	DAI score (%) [1] [%]	Number of lymphocytes (% of Vehicle) After 6 hours (blood lymphocytes; 1 mg/kg)	Number of lymphocytes (% of Vehicle) After 24 hours (blood lymphocytes; 1 mg/kg)	Number of lymphocytes (% of Vehicle) After 48 hours (blood lymphocytes; 1 mg/kg)
CCN(c1ccc(Cl)c(C)c1)C(C)c1ccc(C)c(CN2CC(C(=O)O)C2)c1 (stereo not drawn) [Compound 2-6, 1-(5-{1-[(4-Chloro-3-methylphenyl)(ethyl)amino]ethyl}-2-methylbenzyl)azetidine-3-carboxylic acid]	9.9 % of Vehicle	14.1 % of Vehicle	65.7 % of Vehicle	1.7 ± 1.1	36.8 ± 17.1	24.3 ± 11.8			
CCN(c1ccc(Cl)c(C(F)(F)F)c1)C(C)c1ccc(C)c(CN2CC(C(=O)O)C2)c1 (stereo not drawn) [Compound 2-7, 1-(5-{1-[(4-Chloro-3-trifluoromethylphenyl)(ethyl)amino]ethyl}-2-methylbenzyl)-azetidine-3-carboxylic acid]	10.9 % of Vehicle	10.6 % of Vehicle	13.2 % of Vehicle	1.6 ± 1.2	32.4 ± 14.2	22.1 ± 14.8	15.0 % of Vehicle	11.1 % of Vehicle	66.8 % of Vehicle
